{
  "source": "patent US9873657B2",
  "about": "“Derivatives of benzyl benzoate” (ROBERTET S.A., priority 2014, dated 2018)",
  "test_system": "Corynaebacterium xerosis",
  "experiment": "In vitro deodorant activity and durability test (CFU counting in culture vials)",
  "type": "cell-based",
  "details": "for Number of CFU/ml at t + 24 h / Number of CFU/ml at t + 48 h: 37° C.",
  "description": "The test is carried out in vitro.\nThe compound 1 and the benzyl-4-benzoyloxybenzoate (reference compound described in the international patent application WO 91/07165) are both 10% diluted in benzylbenzoate, and incorporated in a specific culture medium at the moment of distribution in 50 ml vials.\nThe composition of the vials is characterized as follows: • Vial No. 1 • Brain Heart Infusion (medium)+0.5% Tween 40 • Compound 1 or benzyl-4-benzoyloxybenzoate—0.25% • Enzyme (Lipozyme® CALB, Novozymes)—2% • Bacteria (Corynaebacterium xerosis)—about 10^6 CFU/ml • Vial No. 2 • Brain Heart Infusion (medium)+0.5% Tween 40 • Compound 1 or benzyl-4-benzoyloxybenzoate—0.25% • Bacteria (Corynaebacterium xerosis)—about 10^6 CFU/ml • Vial No. 3 • Brain Heart Infusion (medium)+0.5% Tween 40 • Compound 1 or benzyl-4-benzoyloxybenzoate—0.25% • Enzyme (Lipozyme® CALB, Novozymes)—2%\nAfterwards, the vials are incubated under stirring at 37° C. for 48 hours.\nAfter 24 hours, a collection is performed, and 100 μl of a dilution to 1/1000th are spread out on gelose. Counting of the number of CFU (Colony Forming Units) is performed.\nIt is the comparison of the ratios between the amount of CFU/ml at a time t for the product+enzyme and the product alone which allows assessing the inhibiting activity of the product.",
  "key": {"[1]": {"details": "Vial 1: product 0.25% + enzyme (Lipozyme CALB) 2% + bacteria, Brain Heart Infusion + 0.5% Tween 40"}, "[2]": {"details": "Vial 2: product 0.25% + bacteria, no enzyme, Brain Heart Infusion + 0.5% Tween 40"}, "[3]": {"details": "Vial 3: product 0.25% + enzyme 2%, no bacteria added"}},
  "data": [
    {"smiles": "O=C(OCc1ccccc1)c1ccc(OC(=O)c2ccc(Oc3ccccc3)cc2)cc1", "note": "[Compound 1, Benzyl[4-(4-Phenoxy)Benzoyloxy]Benzoate]", "values": [
      {"measurement": "Number of CFU/ml at t + 24 h", "setting": "[1]", "value": "10^7 CFU/ml"},
      {"measurement": "Number of CFU/ml at t + 48 h", "setting": "[1]", "value": "36000 ^ CFU/ml"},
      {"measurement": "Number of CFU/ml at t + 24 h", "setting": "[2]", "value": "10^8 CFU/ml"},
      {"measurement": "Number of CFU/ml at t + 48 h", "setting": "[2]", "value": "3.2 × 10^6 CFU/ml"},
      {"measurement": "Number of CFU/ml at t + 24 h", "setting": "[3]", "value": 0, "unit": "CFU/ml"},
      {"measurement": "Number of CFU/ml at t + 48 h", "setting": "[3]", "value": 0, "unit": "CFU/ml"},
      {"measurement": "deodorant activity compared with benzyl-4-benzoyloxybenzoate", "setting": "after 24 hours", "value": "comparable"},
      {"measurement": "deodorant activity relative to the benzyl-4-benzoyloxybenzoate", "setting": "after 48 hours", "value": "significantly higher"}
    ]},
    {"smiles": "O=C(OCc1ccccc1)c1ccc(OC(=O)c2ccccc2)cc1", "note": "[benzyl-4-benzoyloxybenzoate, reference compound]", "values": [
      {"measurement": "Number of CFU/ml at t + 24 h", "setting": "[1]", "value": "2.7 × 10^6 CFU/ml"},
      {"measurement": "Number of CFU/ml at t + 48 h", "setting": "[1]", "value": "10^8 CFU/ml"},
      {"measurement": "Number of CFU/ml at t + 24 h", "setting": "[2]", "value": "10^8 CFU/ml"},
      {"measurement": "Number of CFU/ml at t + 48 h", "setting": "[2]", "value": "10^9 CFU/ml"},
      {"measurement": "Number of CFU/ml at t + 24 h", "setting": "[3]", "value": 0, "unit": "CFU/ml"},
      {"measurement": "Number of CFU/ml at t + 48 h", "setting": "[3]", "value": 0, "unit": "CFU/ml"}
    ]}
  ]
}
